Entries after “also recorded” stand apart in the source; their conditions may differ.
Tests used:
[1] = system: Limulus amoebocyte lysate (LAL); assay: Endotoxicity, LAL gelification test; type: biochemical, Limulus polyphemus; details: ng LPS per ng product, n = 2-12
Description: (§1) The endotoxicity and the biological activity of disaccharide A (example 1) and of disaccharide B (example 2) were determined and compared to that of lipopolysaccharide originating from Escherichia coli O111:B4 (Sigma, Product No. L3024), lipid A (Sigma, Product No. L5399; used as a starting material in example 4), and 3-O-deacylated lipid A originating from lipid A of Escherichia coli F583 (prepared as in the comparative example), but without purification by HPLC.
(§2) The endotoxicity was determined in the Limulus amoebocyte lysate (LAL) test. This test is based on the observation that endotoxins induce coagulation of the hemolymph of Limulus polyphemus.
(§3) In the gelification test serial dilutions of the compound to be tested were mixed with LAL 1:1, (v/v) (Haemachem Inc., sensitivity LAL 0.06 endotoxin units/ml), and the mixture was incubated for one hour at 37° C. Then gel formation was monitored by measuring the optical density at 405 nm. The last dilution which formed a gel was determined by inverting the reaction microplate. The endotoxin activity in the samples was determined by comparison with dilutions of a lipopolysaccharide standard (1 endotoxin unit=0.1 ng LPS).
The results are expressed in table 3 as: ng LPS per ng product.

[2] = system: macrophages of C57BL/6 mice; assay: Production of interleukin-1α (IL-1α) in supernatants of macrophages, ELISA; type: cell-based
Text: (§4) Bone marrow was collected from hip, femur and tibia of six week old male C57BL/6 mice. After homogenization of the marrow suspension in Dulbecco modified medium and centrifugation, the pellet was resuspended in Dulbecco modified medium and the cells were cultivated at a concentration of 4×10^5 cells per ml in the same medium supplemented with 30% supernatant of L-929 fibroblasts (a common source for colony stimulating factor 1 [CSF-1]) and 20% horse serum.
(§5) After 7 days the mature macrophages were collected and resuspended in Dulbecco modified medium comprising 5% foetal calf serum to a concentration of 7×10^6 cells per ml. This cell suspension was mixed 1:1, (v/v) with samples diluted in the same medium and used in the biological tests performed in microplates with 70,000 cells/well (incubation at 37° C. for 22 hours, 100% humidity and 8% CO2).
The concentration of IL-1α in the supernatants of macrophages was measured by an ELISA-test (Kit GENZYME, Intertest-1α).

[3] = system: macrophages of C57BL/6 mice; assay: Production of TNF-α in supernatants of macrophages, ELISA; type: cell-based
Text: as §4, §5
The concentration of TNF-α in supernatants of macrophages was determined by an ELISA test (Kit GENZYME, Factor-test mTNF-α).

[4] = system: Limulus amoebocyte lysate (LAL); assay: Endotoxicity in the limulus amoebocyte lysate (LAL) test (gelification and chromogenic); type: biochemical, Limulus polyphemus
Description: as §1, §2, §3
The endotoxicity was also measured in the chromogenic test, in which the activation of a protease in LAL by LPS was measured using a chromogen (Ac-Ile-Glu-Ala-Arg-pNA; Bio Whittaker Kit No. 50-650U). […]

[5] = highest concentration tested 500 μg/ml

CCCCCCCCCCCC(=O)O[C@H](CCCCCCCCCCC)CC(=O)N[C@H]1[C@H](OC[C@H]2O[C@H](OP(=O)(O)O)[C@H](NC(=O)C[C@H](O)CCCCCCCCCCC)[C@@H](O)[C@@H]2O)O[C@H](CO)[C@@H](OP(=O)(O)O)[C@@H]1O [disaccharide A, 2-Deoxy-6-O-[2-deoxy-2-[(R)-3-dodecanoyloxytetradecanoylamino]-4-O-phosphono-β-D-glucopyranosyl]-2-[(R)-3-hydroxytetradecanoylamino]-α-D-glucopyranosyl dihydrogenphosphate]
Endotoxic activity in LAL, gelification [1]: 0.003 ± 0.002 ng/ng
IL-1α at concentration 500 μg/ml ([2]; 500 μg/ml): 75 ± 45 pg/mL
minimal effective concentration ([2]; Mus musculus, Macrophage, 22 h, detection limit in the order of 15 pg/ml, read-out: IL-1α: Minimum activity detected, concentration): 16 µg/mL
IL-1α at minimum activity detected ([2]; at the concentration of minimum activity, LPS 1.56, lipid A 50, 3-O-deacylated lipid A 160, disaccharide A 16 μg/ml): 19 ± 11 pg/mL
IL-1α at highest concentration tested [2, 5]: 75 ± 45 pg/mL
IL-1α production, in words ([2]; macrophages of C57BL/6 mice, comparison partly at 500 μg/ml): not significantly different; also recorded: at least as strong as by lipid A and 3-O-deacylated lipid A
TNF-α at concentration 500 μg/ml ([3]; 500 μg/ml): 530 ± 139 pg/mL
minimal effective concentration ([3]; Mus musculus, Macrophage, 22 h, detection limit in the order of 100 pg/ml, read-out: TNF-α: Minimum activity detected, concentration): 0.16 µg/mL
TNF α at minimum activity detected ([3]; at the concentration of minimum activity, LPS 0.006, lipid A 0.016, 3-O-deacylated lipid A 0.016, disaccharide A 0.16 μg/ml): 159 ± 43 pg/mL
TNF-α at highest concentration tested [3, 5]: 530 ± 139 pg/mL
TNF-α production, in words ([3]; macrophages of C57BL/6 mice): equally or more strongly than lipid A or 3-O-deacylated lipid A
Endotoxicity in LAL, in words [4]: lowest endotoxicity

Source: patent US6005099A, “Glucosamine disaccharides, method for their preparation, pharmaceutical composition comprising same, and their use” (priority 1993, dated 1999)
